Test results: patent publication US9932314B2, “Pyrazole compounds and their use as T-type calcium channel blockers” (IDORSIA PHARMACEUTICALS LTD, priority 2015, dated 2018)

Biological target: T1, voltage-dependent T-type calcium channel subunit alpha-1G (Cav3.2) (Homo sapiens, UniProt O95180)
T1 construct: expressed in transfected cells; host or cells: HEK293
Test: FLIPR calcium flux assay, HEK293 cells recombinantly expressing Cav3.2
Format: cell-based
Conditions: Cav3.2-channel, Fluo-4-AM, 3 min incubation, stimulation with 10 mM CaCl2
Description: In Vitro Methods—Measurement of Calcium Channel Flux by Means of FLIPR Assays.
HEK293 cells recombinantly expressing either voltage-dependent T-type calcium channel subunit […] (Cav3.2) or voltage-dependent L-type calcium channel subunit alpha-1C (Cav1.2) are assayed for calcium flux using the calcium indicator dye Fluo-4-AM (Molecular Devices) and FLIPR technology (Fluorometric Imaging Plate Reader, Molecular Devices) (Xie X, Van Deusen A L, Vitko I, Babu D A, Davies L A, Huynh N, Cheng H, Yang N, Barrett P Q, Perez-Reyes E. Validation of high throughput screening assays against three subtypes of Ca(v)3 T-type channels using molecular and pharmacologic approaches. Assay and Drug Development Technologies 2007, 5(2), 191-203). The HEK293 cells recombinantly expressing Cav3.2 are maintained in DMEM growth medium (Life Technologies) supplemented with 10% Fetal Bovine Serum (FBS), 100 U/ml penicilin (Life Technologies), 100 μg/ml streptomycin (Life Technologies) and 1 mg/ml G418 (Life Technologies). HEK293 cells recombinantly expressing Cav1.2 are maintained in DMEM growth medium (Life technologies) supplemented with 10% FBS, 0.1 mg/ml G418 (Life Technologies), 0.1 mg/ml hygromycin (Life Technologies) and 40 ug/ml zeocin (Life Technologies).
The seeded plates are incubated overnight at 37° C.
The cells are then washed three times with assay buffer (HBSS 1×; 0.375 g/L NaHCO3; 20 mM Hepes; 1% FBS; pH 7.4) and allowed to rest in 50 μl of wash buffer for 30 minutes.
Stock solutions of test compounds are prepared to a concentration of 10 mM in DMSO. For the Cav3.2 assay, serial dilutions of the compounds are prepared in TEAC buffer (100 mM tetraethylammonium chloride; 20 mM Hepes; 2.5 mM CaCl2; 5 mM KCl; 1 mM MgCl2; 1% FBS; pH 7.2), for the Cav1.2 assay serial dilutions are prepared in assay buffer. […] The compounds are incubated with the cells for 3 minutes and Ca2+ entry is stimulated by adding either CaCl2 to a final concentration of 10 mM (Cav3.2 assay) or by adding KCl to a final concentration of 20 mM (Cav1.2 assay). The kinetics of fluorescence increase are recorded for every well and the area under the fluorescence trace for every compound concentration is used to generate inhibition curves using non-linear regression sigmoidal concentration-response curve analysis with in-house software.

T1 sequence (O95180 whole entry): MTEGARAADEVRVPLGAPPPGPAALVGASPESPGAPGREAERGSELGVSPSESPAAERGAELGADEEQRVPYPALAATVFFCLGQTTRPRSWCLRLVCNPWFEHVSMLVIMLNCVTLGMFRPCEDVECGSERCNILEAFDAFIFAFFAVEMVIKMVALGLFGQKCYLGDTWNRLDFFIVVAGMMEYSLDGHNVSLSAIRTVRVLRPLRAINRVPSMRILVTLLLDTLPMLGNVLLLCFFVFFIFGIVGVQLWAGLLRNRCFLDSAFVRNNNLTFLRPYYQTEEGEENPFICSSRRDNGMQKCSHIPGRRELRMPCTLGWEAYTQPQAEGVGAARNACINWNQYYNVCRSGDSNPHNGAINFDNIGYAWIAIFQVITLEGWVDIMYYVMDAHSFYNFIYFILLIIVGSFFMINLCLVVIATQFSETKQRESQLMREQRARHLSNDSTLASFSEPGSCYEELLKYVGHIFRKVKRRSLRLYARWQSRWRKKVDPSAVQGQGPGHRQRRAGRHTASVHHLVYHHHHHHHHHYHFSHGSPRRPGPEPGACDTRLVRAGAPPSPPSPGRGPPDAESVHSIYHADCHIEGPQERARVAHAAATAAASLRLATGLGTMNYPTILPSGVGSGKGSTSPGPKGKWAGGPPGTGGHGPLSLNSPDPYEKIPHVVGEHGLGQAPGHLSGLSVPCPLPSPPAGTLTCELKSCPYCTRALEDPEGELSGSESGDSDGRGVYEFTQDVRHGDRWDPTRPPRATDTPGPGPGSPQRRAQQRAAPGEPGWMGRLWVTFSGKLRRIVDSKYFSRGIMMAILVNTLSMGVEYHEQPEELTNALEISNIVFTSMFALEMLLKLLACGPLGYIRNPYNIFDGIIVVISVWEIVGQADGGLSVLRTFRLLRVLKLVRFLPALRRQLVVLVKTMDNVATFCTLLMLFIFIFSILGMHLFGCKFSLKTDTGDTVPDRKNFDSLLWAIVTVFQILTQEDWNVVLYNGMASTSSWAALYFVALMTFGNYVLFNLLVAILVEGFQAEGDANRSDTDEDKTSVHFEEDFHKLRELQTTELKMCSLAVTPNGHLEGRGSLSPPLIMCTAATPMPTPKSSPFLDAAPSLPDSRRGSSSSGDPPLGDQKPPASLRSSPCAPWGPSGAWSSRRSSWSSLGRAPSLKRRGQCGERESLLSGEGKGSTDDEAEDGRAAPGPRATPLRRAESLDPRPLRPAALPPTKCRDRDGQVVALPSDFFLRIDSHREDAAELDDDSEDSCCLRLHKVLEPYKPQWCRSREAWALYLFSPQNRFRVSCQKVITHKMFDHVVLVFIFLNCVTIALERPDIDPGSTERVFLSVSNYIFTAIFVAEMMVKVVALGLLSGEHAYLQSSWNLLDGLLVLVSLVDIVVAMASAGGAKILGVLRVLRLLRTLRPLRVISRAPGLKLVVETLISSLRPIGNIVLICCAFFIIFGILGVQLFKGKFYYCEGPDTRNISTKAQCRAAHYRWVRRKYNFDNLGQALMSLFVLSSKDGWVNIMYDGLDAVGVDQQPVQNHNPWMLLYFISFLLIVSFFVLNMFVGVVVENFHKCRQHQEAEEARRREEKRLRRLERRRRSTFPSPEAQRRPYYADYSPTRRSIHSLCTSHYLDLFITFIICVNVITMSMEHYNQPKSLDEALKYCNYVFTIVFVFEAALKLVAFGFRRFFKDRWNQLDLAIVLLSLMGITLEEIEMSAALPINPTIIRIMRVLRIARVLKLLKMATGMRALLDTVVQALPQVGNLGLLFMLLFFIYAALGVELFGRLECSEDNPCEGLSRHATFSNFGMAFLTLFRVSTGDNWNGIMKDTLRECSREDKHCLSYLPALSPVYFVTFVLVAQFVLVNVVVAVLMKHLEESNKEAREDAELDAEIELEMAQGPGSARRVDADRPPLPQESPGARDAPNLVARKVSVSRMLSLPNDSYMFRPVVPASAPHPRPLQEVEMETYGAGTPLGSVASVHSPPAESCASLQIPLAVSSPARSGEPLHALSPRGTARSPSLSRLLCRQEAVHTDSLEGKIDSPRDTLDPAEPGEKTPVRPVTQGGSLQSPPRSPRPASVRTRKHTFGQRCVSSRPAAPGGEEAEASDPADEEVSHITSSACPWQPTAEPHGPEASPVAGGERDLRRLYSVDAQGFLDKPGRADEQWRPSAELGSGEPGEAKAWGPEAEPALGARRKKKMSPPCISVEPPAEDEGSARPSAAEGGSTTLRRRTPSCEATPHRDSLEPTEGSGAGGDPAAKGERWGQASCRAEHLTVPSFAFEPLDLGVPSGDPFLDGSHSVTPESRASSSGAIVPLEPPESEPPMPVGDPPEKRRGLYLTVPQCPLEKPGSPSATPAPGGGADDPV

CN(c1ccc(CC(=O)Nc2ccn(Cc3ccc(F)c(F)c3)n2)cn1)C1CC1 [Example 165, 2-[6-(Cyclopropyl(methyl)amino)-pyridin-3-yl]-N-[1-(3,4-difluoro-benzyl)-1H-pyrazol-3-yl]-acetamide]
IC50: 13 nM

COc1ccc(Cn2ccc(NC(=O)Cc3ccc(C(C)C)cc3)n2)nc1 [Example 131, 2-(4-Isopropyl-phenyl)-N-[1-(5-methoxy-pyridin-2-ylmethyl)-1H-pyrazol-3-yl]-acetamide]
IC50: 88 nM

Cn1ccc2ccc(CC(=O)Nc3ccn(Cc4ccc(C#N)cc4)n3)cc21 [Example 297, N-[1-(4-Cyano-benzyl)-1H-pyrazol-3-yl]-2-(1-methyl-1H-indol-6-yl)-acetamide]
IC50: 20 nM

CN(C)c1ccc(CC(=O)Nc2ccn(Cc3cc(F)c(F)c(F)c3)n2)cn1 [Example 41, 2-(6-Dimethylamino-pyridin-3-yl)-N-[1-(3,4,5-trifluoro-benzyl)-1H-pyrazol-3-yl]-acetamide]
IC50: 38 nM

N#Cc1ccc(Cn2ccc(NC(=O)Cc3ccc(N4CC[C@@H](F)C4)cc3)n2)nc1 [Example 89, N-[1-(5-Cyano-pyridin-2-ylmethyl)-1H-pyrazol-3-yl]-2-[4-((R)-3-fluoro-pyrrolidin-1-yl)-phenyl]-acetamide]
IC50: 61 nM

CC(C)(C#N)c1ccc(CC(=O)Nc2ccn(Cc3ccc(F)c(C#N)c3)n2)cc1 [Example 335, 2-[4-(Cyano-dimethyl-methyl)-phenyl]-N-[1-(3-cyano-4-fluoro-benzyl)-1H-pyrazol-3-yl]-acetamide]
IC50: 20 nM

Cc1cn(C)c2ccc(CC(=O)Nc3ccn(Cc4cc(F)c(C#N)c(F)c4)n3)cc12 [Example 358, N-[1-(4-Cyano-3,5-difluoro-benzyl)-1H-pyrazol-3-yl]-2-(1,3-dimethyl-1H-indol-5-yl)-acetamide]
IC50: 20 nM

N#Cc1ccc(Cn2ccc(NC(=O)Cc3ccc(N4CC[C@H](F)C4)nc3)n2)cc1 [Example 154, N-[1-(4-Cyano-benzyl)-1H-pyrazol-3-yl]-2-[6-((S)-3-fluoro-pyrrolidin-1-yl)-pyridin-3-yl]-acetamide]
IC50: 78 nM

N#Cc1ccc(Cn2ccc(NC(=O)Cc3ccc(OC4CC4)cc3)n2)cc1 [Example 64, N-[1-(4-Cyano-benzyl)-1H-pyrazol-3-yl]-2-(4-cyclopropoxy-phenyl)-acetamide]
IC50: 80 nM

CCN(CC)c1ccc(CC(=O)Nc2ccn(Cc3ccc(OC)cc3)n2)cn1 [Example 191, 2-(6-Diethylamino-pyridin-3-yl)-N-[1-(4-methoxy-benzyl)-1H-pyrazol-3-yl]-acetamide]
IC50: 93 nM

Cn1ccc2ccc(CC(=O)Nc3ccn(Cc4ccc(F)c(C#N)c4)n3)cc21 [Example 309, N-[1-(3-Cyano-4-fluoro-benzyl)-1H-pyrazol-3-yl]-2-(1-methyl-1H-indol-6-yl)-acetamide]
IC50: 27 nM

O=C(Cc1ccc(N2CC[C@H](F)C2)cc1)Nc1ccn(Cc2ccc(F)c(F)c2)n1 [Example 61, N-[1-(3,4-Difluoro-benzyl)-1H-pyrazol-3-yl]-2-[4-((S)-3-fluoro-pyrrolidin-1-yl)-phenyl]-acetamide]
IC50: 3.4 nM

CCN(C)c1ccc(CC(=O)Nc2ccn(Cc3ccc(OC)cc3)n2)cn1 [Example 174, 2-[6-(Ethyl-methyl-amino)-pyridin-3-yl]-N-[1-(4-methoxy-benzyl)-1H-pyrazol-3-yl]-acetamide]
IC50: 319 nM

Cn1ccc2cc(CC(=O)Nc3ccn(Cc4ccc(F)c(C#N)c4)n3)ccc21 [Example 310, N-[1-(3-Cyano-4-fluoro-benzyl)-1H-pyrazol-3-yl]-2-(1-methyl-1H-indol-5-yl)-acetamide]
IC50: 13 nM

CC1(COc2ccc(CC(=O)Nc3ccn(Cc4ccc(C#N)cc4)n3)cc2)COC1 [Example 285, N-[1-(4-Cyano-benzyl)-1H-pyrazol-3-yl]-2-[4-(3-methyl-oxetan-3-ylmethoxy)-phenyl]-acetamide]
IC50: 208 nM

CN(C)c1ccc(CC(=O)Nc2ccn(Cc3ccc(F)c(Cl)c3)n2)cn1 [Example 40, N-[1-(3-Chloro-4-fluoro-benzyl)-1H-pyrazol-3-yl]-2-(6-dimethylamino-pyridin-3-yl)-acetamide]
IC50: 16 nM

CC(C)c1ccc(CC(=O)Nc2ccn(Cc3cc(C(F)F)c(C#N)cn3)n2)cc1 [Example 386, N-[1-(5-cyano-4-difluoromethyl-pyridin-2-ylmethyl)-1H-pyrazol-3-yl]-2-(4-isopropyl-phenyl)-acetamide]
IC50: 69 nM

Cn1ncc2cc(CC(=O)Nc3ccn(Cc4ccc(C#N)c(F)c4)n3)ccc21 [Example 255, N-[1-(4-Cyano-3-fluoro-benzyl)-1H-pyrazol-3-yl]-2-(1-methyl-1H-indazol-5-yl)-acetamide]
IC50: 52 nM

Cc1nc(-c2ccc(CC(=O)Nc3ccn(Cc4ccc(F)c(F)c4)n3)cc2)no1 [Example 235, N-[1-(3,4-Difluoro-benzyl)-1H-pyrazol-3-yl]-2-[4-(5-methyl-[1,2,4]oxadiazol-3-yl)-phenyl]-acetamide]
IC50: 42 nM

CC(C)Cc1ccc(CC(=O)Nc2ccn(Cc3ccc(C#N)cn3)n2)cc1C#N [Example 392, 2-(3-Cyano-4-isobutyl-phenyl)-N-[1-(5-cyano-pyridin-2-ylmethyl)-1H-pyrazol-3-yl]-acetamide]
IC50: 101 nM

O=C(Cc1ccc(-c2cccnc2)cc1)Nc1ccn(Cc2ccc(F)cc2)n1 [Example 83, N-[1-(4-Fluoro-benzyl)-1H-pyrazol-3-yl]-2-(4-pyridin-3-yl-phenyl)-acetamide]
IC50: 26 nM

Cn1ccc2cc(CC(=O)Nc3ccn(Cc4ccc(F)c(F)c4)n3)ccc21 [Example 220, N-[1-(3,4-Difluoro-benzyl)-1H-pyrazol-3-yl]-2-(1-methyl-1H-indol-5-yl)-acetamide]
IC50: 3.1 nM

CCn1ncc2cc(CC(=O)Nc3ccn(Cc4ccc(C)c(C#N)n4)n3)ccc21 [Example 370, N-[1-(6-Cyano-5-methyl-pyridin-2-ylmethyl)-1H-pyrazol-3-yl]-2-(1-ethyl-1H-indazol-5-yl)-acetamide]
IC50: 578 nM

N#Cc1ccc(Cn2ccc(NC(=O)Cc3ccc(OCC(F)(F)F)cc3)n2)cc1 [Example 47, N-[1-(4-Cyano-benzyl)-1H-pyrazol-3-yl]-2-[4-(2,2,2-trifluoro-ethoxy)-phenyl]-acetamide]
IC50: 37 nM

CC(C)Cc1ccc(CC(=O)Nc2ccn(Cc3ccc(F)c(F)c3)n2)cc1C#N [Example 393, 2-(3-Cyano-4-isobutyl-phenyl)-N-[1-(3,4-difluoro-benzyl)-1H-pyrazol-3-yl]-acetamide]
IC50: 51 nM

N#Cc1ccc(Cn2ccc(NC(=O)Cc3ccc(N4CCC(F)(F)C4)cc3)n2)cc1 [Example 76, N-[1-(4-Cyano-benzyl)-1H-pyrazol-3-yl]-2-[4-(3,3-difluoro-pyrrolidin-1-yl)-phenyl]-acetamide]
IC50: 6.1 nM

O=C(Cc1ccc(N2CC(F)C2)nc1)Nc1ccn(Cc2ccc(F)cc2)n1 [Example 162, 2-[6-(3-Fluoro-azetidin-1-yl)-pyridin-3-yl]-N-[1-(4-fluoro-benzyl)-1H-pyrazol-3-yl]-acetamide]
IC50: 64 nM

N#Cc1ccc(Cn2ccc(NC(=O)Cc3ccc(OCC4(F)COC4)cc3)n2)cc1F [Example 257, N-[1-(4-Cyano-3-fluoro-benzyl)-1H-pyrazol-3-yl]-2-[4-(3-fluoro-oxetan-3-ylmethoxy)-phenyl]-acetamide]
IC50: 76 nM

CN(C)c1ccc(CC(=O)Nc2ccn(Cc3ccc(Cl)c(F)c3)n2)cn1 [Example 42, N-[1-(4-Chloro-3-fluoro-benzyl)-1H-pyrazol-3-yl]-2-(6-dimethylamino-pyridin-3-yl)-acetamide]
IC50: 19 nM

Cc1cc(CC(=O)Nc2ccn(Cc3ccc(F)c(C#N)n3)n2)cc(C)c1OCC(F)(F)F [Example 415, N-[1-(6-Cyano-5-fluoro-pyridin-2-ylmethyl)-1H-pyrazol-3-yl]-2-[3,5-dimethyl-4-(2,2,2-trifluoro-ethoxy)-phenyl]-acetamide]
IC50: 4.9 nM

O=C(Cc1ccc(OC2CCC2)cc1)Nc1ccn(Cc2ccc(F)cc2)n1 [Example 198, 2-(4-Cyclobutoxy-phenyl)-N-[1-(4-fluoro-benzyl)-1H-pyrazol-3-yl]-acetamide]
IC50: 16 nM

CC1(COc2ccc(CC(=O)Nc3ccn(Cc4cc(F)c(C#N)c(F)c4)n3)cc2)CC(F)(F)C1 [Example 364, N-[1-(4-Cyano-3,5-difluoro-benzyl)-1H-pyrazol-3-yl]-2-[4-(3,3-difluoro-1-methyl-cyclobutylmethoxy)-phenyl]-acetamide]
IC50: 62 nM
